Consider 17 compounds from patent US7476764B2, “Phenylcarboxyamides as beta-secretase inhibitors” (Bristol-Myers Squibb Company, priority 2005, dated 2009).

pIC50: −log10 of the molar value. Where a name gives a salt, the structure may show the parent alone.

T1 sequence (P56817 46-501): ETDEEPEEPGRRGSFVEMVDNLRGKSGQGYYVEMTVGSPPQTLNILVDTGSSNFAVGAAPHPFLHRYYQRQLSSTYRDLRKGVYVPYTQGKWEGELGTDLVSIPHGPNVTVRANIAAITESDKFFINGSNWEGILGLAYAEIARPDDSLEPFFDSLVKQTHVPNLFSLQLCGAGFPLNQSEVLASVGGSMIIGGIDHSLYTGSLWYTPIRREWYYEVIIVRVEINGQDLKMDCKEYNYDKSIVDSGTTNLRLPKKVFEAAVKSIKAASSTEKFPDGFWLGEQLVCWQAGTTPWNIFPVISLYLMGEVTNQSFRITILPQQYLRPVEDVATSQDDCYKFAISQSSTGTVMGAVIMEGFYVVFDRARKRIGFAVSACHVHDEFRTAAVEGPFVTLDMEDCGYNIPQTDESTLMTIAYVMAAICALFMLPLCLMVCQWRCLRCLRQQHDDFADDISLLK

This test addresses T1, BACE1 enzyme (Homo sapiens, UniProt P56817).
T1 construct: The HEK293-9B.A1 cell line, which overexpresses the BACE1 enzyme, was derived from HEK293 cells; endogenous in cells; washed 48,000 x g pellet of the cell homogenate
Kind of test: Radioligand displacement assay with a radiolabeled BACE inhibitor on HEK293-9B.A1 cell homogenate. Type of test: binding. The note with it: displacement of 1 nM tritiated radioligand, HEK293-9B.A1 homogenate, pH 5.0, 1.5 hr at 25° C.; read-out: Activity Rating (activity based on IC50 values). As to the method:
Radioligand displacement assays with a radiolabeled BACE inhibitor (WO 2004 013098, compound 3, where the methoxy group is substituted for C(^3H)3) were carried out using standard methods (Keen, M. (1999) in Receptor Binding Techniques (Walker, J. M. ed) p. 106 Humana Press, Totowa, N.J.). The HEK293-9B.A1 cell line, which overexpresses the BACE1 enzyme, was derived from HEK293 cells (Simmons, N. L. (1990) A cultured human renal epitheloid cell line responsive to vasoactive intestinal peptide. Exp. Physiol. 75:309-19.) by RAGE™ (Harrington, J. J. et al. (2001) Creation of genome-wide protein expression libraries using random activation of gene expression. Nat. Biotechnol. 19:440-5; U.S. Pat. Nos. 6,410,266 and 6,361,972). T225 flask cultures of HEK293-9B.A1 were grown to 80% confluency in DMEM supplemented with 2 mM L-glutamine, 10 μg/ml penicillin, 10 μg/ml streptomycin, 3 μg/ml puromycin, 100 nM methotrexate, and 10% fetal bovine serum (Invitrogen, Carlsbad, Calif.), harvested, and resuspended at 2×10^8 cells per 10 ml of lysis buffer consisting of 50 mM HEPES pH 7.0 containing a protease inhibitor cocktail of AEBSF 104 μM, aprotinin 80 nM, leupeptin 2 μM, bestatin 4 μM, pepstatin A 1.5 μM, and E-64 1.4 μM (0.1% of protease inhibitor cocktail P8340, Sigma-Aldrich, St. Louis, Mo.) at 4° C. The resuspended cells were homogenized using a Polytron (Brinkman, Westbury, N.Y.) at setting 6 for 10 sec., then centrifuged at 48,000×g for 10 min. The resulting pellet was washed by repeating the resuspension, homogenization and centrifugation steps. The final pellet was resuspended in buffer at 4° C. to yield a total protein concentration of 5 mg/ml, then aliquots were frozen in liquid nitrogen for further storage at −70° C. Immediately before carrying out a binding assay, an aliquot of cell homogenate was thawed and diluted to a concentration of 100 μg/ml in assay buffer consisting of 50 mM HEPES pH 5.0 and 0.1% CHAPSO. Assays were initiated in polypropylene 96-well plates (Costar, Cambridge, Mass.) by the addition of 200 μl of cell homogenate to 50 μl of assay buffer containing 1 nM radioligand (WO 2004 013098, compound 3, where the methoxy group is substituted for C(^3H)3: 80 Ci/mMol) and various concentrations of unlabelled compounds, and incubated for 1.5 hr. at 25° C. Separation of bound from free radioligand was by filtration on GFF glass fiber filters (Innotech Biosystems International, Lansing, Mich.) using an Innotech cell harvester.
In general terms: In a radioligand displacement assay an active substance lowers the binding of a labelled ligand.
By pIC50 is commonly meant the IC50 on a negative log10 scale, so that one unit is a factor of ten. Take `COc1cccc(CNC[C@@H](O)[C@H](Cc2cc(F)cc(F)c2)NC(=O)c2cc(C(C)=O)cc(N(c3ccccc3)S(C)(=O)=O)c2)c1` [Example 36, N-((2S,3R)-4-(3-methoxybenzylamino)-1-(3,5-difluorophenyl)-3-hydroxybutan-2-yl)-3-acetyl-5-(N-phenylmethan-10-ylsulfonamido)benzamide TFA salt]: the negative-log IC50 (pIC50) was above 7.00.

Turning to `COc1cccc(CNC[C@@H](O)[C@H](Cc2cc(F)cc(F)c2)NC(=O)c2cc(/C(C)=N/OCC(C)C)cc(N(C)S(C)(=O)=O)c2)c1` [Example 33, N-((2S,3R)-4-(3-methoxybenzylamino)-1-(3,5-difluorophenyl)-3-hydroxybutan-2-yl)-3-((E)-1-(isobutoxyimino)ethyl)-5-(N-methylmethan-2-ylsulfonamido)benzamide TFA salt], the negative-log IC50 (pIC50) is 6.00 to 7.00.

On to `C=CCO/N=C(\C)c1cc(C(=O)N[C@@H](Cc2cc(F)cc(F)c2)[C@H](O)CNCc2cccc(OC)c2)cc(N2CCCCS2(=O)=O)c1` [Example 28, N-[(1S,2R)-1-(3,5-difluoro-benzyl)-2-hydroxy-3-(3-methoxy-benzylamino)-propyl]-3-(1,1-dioxo-1λ^6-[1,2]thiazinan-2-yl)-5-{1-[(E)-allyloxyimino]-ethyl}-benzamide TFA salt], for which the pIC50 is above 7.00.

Consider `CO/N=C(\C)c1cc(C(=O)N[C@@H](Cc2cc(F)cc(F)c2)[C@H](O)CNCc2cccc(OC)c2)cc(N(c2ccccc2)S(C)(=O)=O)c1` [Example 38, N-((2S,3R)-4-(3-methoxybenzylamino)-1-(3,5-difluorophenyl)-3-hydroxybutan-2-yl)-3-((E)-1-(methoxyimino)ethyl)-5-(N-phenylmethan-10-ylsulfonamido)benzamide], for which the pIC50 is above 7.00.

Consider `CCCN(C)C(=O)c1cc(C(=O)N[C@@H](Cc2cc(F)cc(F)c2)[C@H](O)CNCc2cccc(OC)c2)cc(/C(C)=N/OCC(C)C)c1` [Example 12, N^1-((2S,3R)-4-(3-methoxybenzylamino)-1-(3,5-difluorophenyl)-3-hydroxybutan-2-yl)-5-((E)-1-(isobutoxyimino)ethyl)-N^3-methyl-N^3-propylisophthalamide hydrochloride], for which the pIC50 is above 7.00.

As to `CO/N=C(/C)c1cc(C(=O)NC(C)c2ccc(F)cc2)cc(C(=O)N[C@@H](Cc2cc(F)cc(F)c2)[C@H](O)CNCc2cccc(OC)c2)c1` (stereo partly drawn) [Example 50, N^1-((2S,3R)-4-(3-methoxybenzylamino)-1-(3,5-difluorophenyl)-3-hydroxybutan-2-yl)-N^3-(1-(4-fluorophenyl)ethyl)-5-((Z)-1-(methoxyimino)ethyl)isophthalamide TFA salt], the pIC50 was above 7.00.

`COc1cccc(CNC[C@@H](O)[C@H](Cc2cc(F)cc(F)c2)NC(=O)c2cc(C(C)O)cc(N3CCCCS3(=O)=O)c2)c1` (stereo partly drawn) [Example 23, N-[(1S,2R)-1-(3,5-difluoro-benzyl)-2-hydroxy-3-(3-methoxy-benzylamino)-propyl]-3-(1,1-dioxo-1λ^6-[1,2]thiazinan-2-yl)-5-(1-hydroxy-ethyl)-benzamide TFA salt]: the negative logarithm of the IC50 (pIC50) is above 7.00.

For the compound `CCCO/N=C(\C)c1cc(C(=O)N[C@@H](Cc2cc(F)cc(F)c2)[C@H](O)CNCc2cccc(OC)c2)cc(N(c2ccccc2)S(C)(=O)=O)c1` [Example 43, N-((2S,3R)-4-(3-methoxybenzylamino)-1-(3,5-difluorophenyl)-3-hydroxybutan-2-yl)-3-(N-phenylmethan-10-ylsulfonamido)-5-((E)-1-(propoxyimino)ethyl)benzamide], the negative logarithm of the IC50 (pIC50) was above 7.00.

Take `CCCN(C)C(=O)c1cc(C(=O)N[C@@H](Cc2cc(F)cc(F)c2)[C@H](O)CNCc2cccc(OC)c2)cc(/C(C)=N/O)c1` [Example 9, N^1-((2S,3R)-4-(3-methoxybenzylamino)-1-(3,5-difluorophenyl)-3-hydroxybutan-2-yl)-5-((E)-1-(hydroxyimino)ethyl)-N^3-methyl-N^3-propylisophthalamide hydrochloride]: the negative-log IC50 (pIC50) is above 7.00.

Regarding `CCCN(C)C(=O)c1cc(C(=O)N[C@@H](Cc2cc(F)cc(F)c2)[C@H](O)CNCc2cccc(OC)c2)cc(/C(C)=N/OC)c1` [Example 10, N^1-((2S,3R)-4-(3-methoxybenzylamino)-1-(3,5-difluorophenyl)-3-hydroxybutan-2-yl)-5-((E)-1-(methoxyimino)ethyl)-N^3-methyl-N^3-propylisophthalamide hydrochloride], the pIC50 is above 7.00.

As to `CCCN(C)C(=O)c1cc(C(=O)N[C@@H](Cc2cc(F)cc(F)c2)[C@H](O)CNCc2cccc(OC)c2)cc(C(C)O)c1` (some centres unmarked) [Example 15, hydrochloride], the negative logarithm of the IC50 (pIC50) was above 7.00.

On to `COc1cccc(CNC[C@@H](O)[C@H](Cc2cc(F)cc(F)c2)NC(=O)c2cc(/C(C)=N/O)cc(N(c3ccccc3)S(C)(=O)=O)c2)c1` [Example 37, N-((2S,3R)-4-(3-methoxybenzylamino)-1-(3,5-difluorophenyl)-3-hydroxybutan-2-yl)-3-((E)-1-(hydroxyimino)ethyl)-5-(N-phenylmethan-10-ylsulfonamido)benzamide], for which the pIC50 is above 7.00.

Regarding `COc1cccc(CNC[C@@H](O)[C@H](Cc2cc(F)cc(F)c2)NC(=O)c2cc(/C(C)=N/OCc3ccccc3)cc(S(C)(=O)=O)c2)c1` [Example 18, N-((2S,3R)-4-(3-methoxybenzylamino)-1-(3,5-difluorophenyl)-3-hydroxybutan-2-yl)-3-((E)-1-(benzyloxyimino)ethyl)-5-(methylsulfonyl)benzamide TFA salt], the negative-log IC50 (pIC50) is 6.00 to 7.00.

On to `COc1cccc(CNC[C@@H](O)[C@H](Cc2cc(F)cc(F)c2)NC(=O)c2cc(C(C)O)cc(N(C)S(C)(=O)=O)c2)c1` (stereo partly drawn) [Example 35, N-((2S,3R)-4-(3-methoxybenzylamino)-1-(3,5-difluorophenyl)-3-hydroxybutan-2-yl)-3-(1-hydroxyethyl)-5-(N-methylmethan-2-ylsulfonamido)benzamide TFA salt], for which the negative logarithm of the IC50 (pIC50) was above 7.00.

Turning to `CCCN(CCC)C(=O)c1cc(C(=O)N[C@@H](Cc2cc(F)cc(F)c2)[C@H](O)CNCc2cccc(OC)c2)cc(C(C)O)c1` (stereo partly drawn) [Example 2, N^1-((2S,3R)-4-(3-methoxybenzylamino)-1-(3,5-difluorophenyl)-3-hydroxybutan-2-yl)-5-(1-hydroxyethyl)-N^3,N^3-dipropylisophthalamide TFA salt], the pIC50 was above 7.00.

For `COc1cccc(CNC[C@@H](O)[C@H](Cc2cc(F)cc(F)c2)NC(=O)c2cc(/C(C)=N/OCc3ccccc3)cc(N3CCCCS3(=O)=O)c2)c1` [Example 25, N-[(1S,2R)-1-(3,5-difluoro-benzyl)-2-hydroxy-3-(3-methoxy-benzylamino)-propyl]-3-(1,1-dioxo-1λ^6-[1,2]thiazinan-2-yl)-5-{1-[(E)-benzyloxyimino]-ethyl}-benzamide TFA salt], the pIC50 is above 7.00.

Regarding `COc1cccc(CNC[C@@H](O)[C@H](Cc2cc(F)cc(F)c2)NC(=O)c2cc(C(C)=O)cc(C(=O)NC(C)c3ccc(F)cc3)c2)c1` (stereo partly drawn) [Example 47, N^1-((2S,3R)-4-(3-methoxybenzylamino)-1-(3,5-difluorophenyl)-3-hydroxybutan-2-yl)-5-acetyl-N^3-(1-(4-fluorophenyl)ethyl)isophthalamide TFA salt], the pIC50 is above 7.00.
